Earlier results as cited in patent US20210029988A1, “PEST REPELLENT COMPOSITION” (JGC CATALYSTS AND CHEMICALS LTD., priority 2018, published 2021).

How the values were obtained:
[1] = within 6 hours

Structure (SMILES): CCN(CC)C(=O)c1cccc(C)c1 [DEET, N,N-diethyl-m-toluamide]
- Vapor pressure at 20°C (VP): 0.22 Pa
- Transdermally absorbed proportion of DEET applied on the skin [1]: about 50%
